The compounds below were run against T1, human capsaicin receptor (Homo sapiens, UniProt Q8NER1) (assay: Antagonist assay for Capsaicin receptor mediated calcium mobilization). Details: Table III, read-out: EC50 (the source's name).
T1 construct: expression consrtuct encoding the full length human capsaicin receptor; expressed in transfected cells
T1 sequence (Q8NER1 whole entry): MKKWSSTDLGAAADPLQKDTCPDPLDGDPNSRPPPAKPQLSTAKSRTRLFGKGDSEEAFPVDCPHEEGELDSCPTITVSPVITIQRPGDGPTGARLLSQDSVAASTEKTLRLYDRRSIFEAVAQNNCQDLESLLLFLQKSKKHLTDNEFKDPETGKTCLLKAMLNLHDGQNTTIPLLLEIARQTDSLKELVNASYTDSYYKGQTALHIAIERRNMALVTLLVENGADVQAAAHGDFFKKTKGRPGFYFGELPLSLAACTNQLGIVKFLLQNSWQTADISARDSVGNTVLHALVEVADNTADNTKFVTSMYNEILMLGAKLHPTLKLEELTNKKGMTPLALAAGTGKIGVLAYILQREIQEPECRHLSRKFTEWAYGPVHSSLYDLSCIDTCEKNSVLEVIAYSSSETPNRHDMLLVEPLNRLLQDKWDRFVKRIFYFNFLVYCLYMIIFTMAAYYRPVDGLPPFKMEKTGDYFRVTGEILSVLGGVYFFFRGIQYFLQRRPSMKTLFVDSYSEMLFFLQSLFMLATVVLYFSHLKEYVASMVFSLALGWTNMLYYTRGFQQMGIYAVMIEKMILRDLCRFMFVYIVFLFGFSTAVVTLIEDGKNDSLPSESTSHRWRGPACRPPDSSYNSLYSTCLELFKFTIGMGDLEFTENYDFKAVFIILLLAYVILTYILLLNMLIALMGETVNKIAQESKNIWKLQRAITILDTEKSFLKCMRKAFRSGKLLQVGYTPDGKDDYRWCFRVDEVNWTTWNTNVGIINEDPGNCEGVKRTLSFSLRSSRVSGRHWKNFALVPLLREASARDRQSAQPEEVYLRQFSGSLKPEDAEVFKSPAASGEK
Assay type: cell-based
Experimental: Calcium Mobilization Assay
Cells transfected with expression plasmids (as described in Example 10) and thereby expressing the human capsaicin receptor are seeded and grown to 70-90% confluency in FALCON black-walled, clear-bottomed 96-well plates (#3904, BECTON-DICKINSON, Franklin Lakes, N.J.) . The culture media are emptied from the 96 well plates and FLUO-3 AM calcium sensitive dye (Molecular Probes, Eugene, OR) is added to each well (dye solution: 1 mg FLUO-3 AM, 440 uL DMSO and 440 ul 20% pluronic acid in DMSO, diluted 1:4, 50 ul diluted solution per well). Plates are covered with aluminum foil and incubated at 37° C for 1-2 hours in an environment containing 5% CO2. After the incubation the dye is emptied from the plates, and the cells are washed once with Krebs-Ringer HEPES (KRH) buffer (25 mM HEPES, 5 mM KCl, 0.96 mM NaH2PO4, 1 MM MgSO4, 2 mM CaCl2, 5 mM glucose, 1 mM probenecid, pH 7.4), and resuspended in KRH buffer.
Agonist (e.g., olvanil, capsaicin, or RTX)-induced calcium mobilization is monitored using either FLUOROSKAN ASCENT (Labsystems, Franklin, Mass.) or FLIPR (fluorometric imaging plate reader system, Molecular Devices, Sunnyvale, Calif.) instruments. Similarly, varying concentrations of the antagonists ruthenium red or capsazepine are added to cells concurrently with agonist (e.g., 25-50 nM capsaicin). For agonist-induced calcium responses, data obtained between 30 and 60 seconds after agonist application are used to generate the EC50 values. […] software (Synergy Software, Reading, Pa.) was utilized to fit the data to the equation: […]
to determine the EC50 for the response. In this equation, y is the maximum fluorescence signal, x is the concentration of the agonist or antagonist, a is the Emax, b corresponds to the EC50 or IC50 value, and finally, c is the Hill coefficient.
Assay for Determination of Capsaicin Receptor Antagonist Effects
In order to measure the ability of a test compound to antagonize (inhibit) the response of cells expressing capsaicin receptors to capsaicin or other vanilloid agonist, the EC50 of capsaicin is first determined.
An additional 20 ul of KRH buffer and 1 ul DMSO is added to each well of cells, prepared as described above. 100 ul capsaicin in KRH buffer is automatically transferred by the FLIPR instrument to each well.
Test compounds are dissolved in DMSO, diluted in 20 ul KRH buffer so that the final concentration of test compounds in the assay well is between 1 uM and 5 uM, and added to cells prepared as described above. The 96 well plates containing prepared cells and test compounds are incubated in the dark, at room temperature for 0.5-6 hours. It is important that the incubation not continue beyond 6 hours. Just prior to determining the fluorescence response, 100 ul capsaicin in KRH buffer at twice the EC50 concentration determined from the concentration response curve is automatically added by the FLIPR instrument to each well of the 96 well plate for a final sample volume of 200 ul and a final capsaicin concentration equal to the EC50. The final concentration of test compounds in the assay wells is between 1 uM and 5 uM. […] Antagonists of the capsaicin receptor decrease this response by about 20%, preferably by about 50%, and most preferably by at least 80% as compared to matched control. The concentration of antagonist required to provide a 50% decrease is the EC50 for the antagonist (also referred to as the IC50).
In the case of `C[C@@H]1CN(c2ncccc2Cl)CCN1C(=O)Nc1ccc(C2CCCCC2)cc1` [Compound 18, (2R)-4-(3-chloropyridin-2-yl)-N-(4-cyclohexylphenyl)-2-methylpiperazine-1-carboxamide], the IC50 is reported as less than 1000 nM.
In the case of `C[C@@H]1CN(c2ncccc2Cl)CCN1C(=O)Nc1ccc(C(F)(F)F)cc1` [Compound 20, (2R)-4-(3-chloropyridin-2-yl)-2-methyl-N-[4-(trifluoromethyl)phenyl]piperazine-1-carboxamide], the IC50 is reported as less than 1000 nM.
With `C[C@@H]1CN(c2ncccc2Cl)CCN1C(=O)Nc1ccc(C(C)(C)C)cc1` [Compound 21, (2R)-N-(4-tert-butylphenyl)-4-(3-chlorpyridin-2-yl)-2-methylpiperazine-1-carboxamide] the IC50 was less than 1000 nM.
`CC(C)c1ccc(NC(=O)N2CCN(c3ncccc3Cl)C[C@H]2C)cc1` [Compound 22, (2R)-4-(3-chloropyridin-2-yl)-N-(4-isopropylphenyl)-2-methylpiperazine-1-carboxamide] gave an IC50 of less than 1000 nM.
Work on `C[C@H]1CN(c2ncccc2Cl)CCN1C(=O)Nc1ccc(C(F)(F)F)cc1` [Compound 23, (2S)-4-(3-chloropyridin-2-yl)-N-(4-trifluoromethylphenyl)-2-methylpiperazine-1-carboxamide] yielded an IC50 of less than 1000 nM.
For `C[C@H]1CN(c2ncccc2Cl)CCN1C(=O)Nc1ccc(C(C)(C)C)cc1` [Compound 24, (2S)-N-(4-tert-butylphenyl)-4-(3-chloropyridin-2-yl)-2-methylpiperazine-1-carboxamide], the IC50 was less than 1000 nM.
`C[C@@H]1CN(c2ncccc2Cl)CCN1C(=O)Nc1ccc(N2CCCCC2)cc1` [Compound 26, (2R)-4-(3-chloropyridin-2-yl)-2-methyl-N-(4-piperidin-1-ylphenyl)piperazine-1-carboxamide] showed an IC50 of less than 1000 nM.
`C[C@@H]1CN(c2ncccc2Cl)CCN1C(=O)Nc1ccc(C(F)(F)F)cc1F` [Compound 27, (2R)-4-(3-chloropyridin-2-yl)-N-[2-fluoro-4-(trifluoromethyl)phenyl]-2-methylpiperazine-1-carboxamide] gave an IC50 of less than 1000 nM.
For `C[C@@H]1CN(c2ncccc2C(F)(F)F)CCN1C(=O)Nc1ccc(C(F)(F)F)cc1` [Compound 28, (2R)-2-methyl-N-[4-(trifluoromethyl)phenyl]-4-[3-(trifluoromethyl)pyridin-2-yl]piperazine-1-carboxamide], the IC50 was less than 1000 nM.
`C[C@@H]1CN(c2ncccc2C(F)(F)F)CCN1C(=O)Nc1ccc(C(C)(C)C)cc1` [Compound 29, (2R)-N-(4-tert-butylphenyl)-2-methyl-4-[3-(trifluoromethyl)pyridin-2-yl]piperazine-1-carboxamide] was tested, and the IC50 was less than 1000 nM.
Compound `CC(C)c1ccc(NC(=O)N2CCN(c3ncccc3C(F)(F)F)C[C@H]2C)cc1` [Compound 30, (2R)-N-(4-isopropylphenyl)-2-methyl-4-[3-(trifluoromethyl)pyridin-2-yl]piperazine-1-carboxamide] has an IC50 of less than 1000 nM.
With `CC1CN(c2ncccc2Cl)CC(C)N1C(=O)Nc1ccc(C(F)(F)F)cc1` (stereo not drawn) [Compound 31, 4-(3-chloropyridin-2-yl)-2,6-dimethyl-N-[4-(trifluoromethyl)phenyl]piperazine-1-carboxamide] the IC50 was less than 1000 nM.
Compound `CC1CN(c2ncccc2Cl)CC(C)N1C(=O)Nc1ccc(C(C)(C)C)cc1` (stereo not drawn) [Compound 32, N-(4-tert-butylphenyl)-4-(3-chloropyridin-2-yl)-2,6-dimethylpiperazine-1-carboxamide] has an IC50 of less than 1000 nM.
For `CC(C)c1ccc(NC(=O)N2C(C)CN(c3ncccc3Cl)CC2C)cc1` (stereo not drawn) [Compound 33, 4-(3-chloropyridin-2-yl)-N-(4-isopropylphenyl)-2,6-dimethylpiperazine-1-carboxamide], the IC50 was less than 1000 nM.
Work on `C[C@@H]1CN(c2ncccc2C(F)(F)F)CCN1C(=O)Nc1ccc(C2CCCCC2)cc1` [Compound 34, (2R)-N-(4-cyclohexylphenyl)-2-methyl-4-[3-(trifluoromethyl)pyridin-2-yl]piperazine-1-carboxamide] yielded an IC50 of less than 1000 nM.
For `CC1CN(c2ncccc2Cl)CC(C)N1C(=O)Nc1ccc(C2CCCCC2)cc1` (stereo not drawn) [Compound 35, 4-(3-chloropyridin-2-yl)-N-(4-cyclohexylphenyl) 2,6-dimethylpiperazine-1-carboxamide], the IC50 was less than 1000 nM.
Compound `C[C@@H]1CN(c2ncccc2Cl)CCN1C(=O)Nc1ccc(C2CCCC2)cc1` [Compound 36, (2R)-4-(3-chloropyridin-2-yl)-N-(4-cyclopentylphenyl)-2-methylpiperazine-1-carboxamide] has an IC50 of less than 1000 nM.
Compound `C[C@@H]1CN(c2ncccc2C(F)(F)F)CCN1C(=O)Nc1ccc(C2CCCC2)cc1` [Compound 37, (2R)-N-(4-cyclopentylphenyl)-2-methyl-4-[3-(trifluoromethyl)pyridin-2-yl]piperazine-1-carboxamide] has an IC50 of less than 1000 nM.
For `C[C@@H]1CN(c2nccc3ccccc23)CCN1C(=O)Nc1ccc(C(F)(F)F)cc1` [Compound 38, (2R)-4-isoquinolin-1-yl-2-methyl-N-[4-(trifluoromethyl)phenyl]piperazine-1-carboxamide], the IC50 was less than 1000 nM.
Compound `C[C@@H]1CN(c2nccc3ccccc23)CCN1C(=O)Nc1ccc(C(C)(C)C)cc1` [Compound 39, (2R)-N-(4-tert-butylphenyl)-4-isoquinolin-1-yl-2-methylpiperazine-1-carboxamide] has an IC50 of less than 1000 nM.
`CC(C)c1ccc(NC(=O)N2CCN(c3nccc4ccccc34)C[C@H]2C)cc1` [Compound 40, (2R)-N-(4-isopropylphenyl)-4-isoquinolin-1-yl-2-methylpiperazine-1-carboxamide] showed an IC50 of less than 1000 nM.
Compound `C[C@@H]1CN(c2nccc3ccccc23)CCN1C(=O)Nc1ccc(C2CCCC2)cc1` [Compound 41, (2R)-N-(4-cyclopentylphenyl)-4-isoquinolin-1-yl-2-methylpiperazine-1-carboxamide] has an IC50 of less than 1000 nM.
Compound `C[C@@H]1CN(c2nccc3ccccc23)CCN1C(=O)Nc1ccc(C2CCCCC2)cc1` [Compound 42, (2R)-N-(4-cyclohexylphenyl)-4-isoquinolin-1-yl-2-methylpiperazine-1-carboxamide] has an IC50 of less than 1000 nM.
`C[C@@H]1CN(c2ncccc2N(C)C)CCN1C(=O)Nc1ccc(C(C)(C)C)cc1` [Compound 43, (2R)-N-(4-tert-butylphenyl)-4-[3-(dimethylamino)pyridin-2-yl]-2-methylpiperazine-1-carboxamide] gave an IC50 of less than 1000 nM.
`C[C@@H]1CN(c2ncccc2N(C)C)CCN1C(=O)Nc1ccc(C(F)(F)F)cc1` [Compound 44] showed an IC50 of less than 1000 nM.
`COc1cccnc1N1CCN(C(=O)Nc2ccc(C(C)(C)C)cc2)[C@H](C)C1` [Compound 45, (2R)-N-(4-tert-butylphenyl)-4-(3-methoxypyridin-2-yl)-2-methylpiperazine-1-carboxamide] was tested, and the IC50 was less than 1000 nM.
`COc1cccnc1N1CCN(C(=O)Nc2ccc(C3CCCCC3)cc2)[C@H](C)C1` [Compound 47, (2R)-N-(4-cyclohexylphenyl)-4-(3-methoxypyridin-2-yl)-2-methylpiperazine-1-carboxamide] was tested, and the IC50 was less than 1000 nM.
For `C[C@@H]1CN(c2ncccc2Cl)CCN1C(=O)Nc1ccc(C2=CCOCC2)cc1` [Compound 48, (2R)-4-(3-chloropyridin-2-yl)-N-[4-(3,6-dihydro-2H-pyran-4-yl)phenyl]-2-methylpiperazine-1-carboxamide], the IC50 was less than 1000 nM.
`C[C@@H]1CN(c2ncccc2Cl)CCN1C(=O)Nc1ccc(C2CCOCC2)cc1` [Compound 49, (2R)-4-(3-chloropyridin-2-yl)-2-methyyl-N-(4-tetrahydro-2H-pyran-4-ylphenyl)piperazne-1-carboxamide] gave an IC50 of less than 1000 nM.
`C[C@@H]1CN(c2ncccc2Cl)CCN1C(=O)Nc1ccc(C2(O)CCOCC2)cc1` [Compound 50, (2R)-4-(3-chloropyridin-2-yl)-N-[4-(4-hydroxytetrahydro-2H-pyran-4-yl)phenyl]-2-methylpiperazine-1-carboxamide] was tested, and the IC50 was less than 1000 nM.
